Measured values published in patent US7968556B2, “Heteroaryl compounds, compositions thereof, and methods of treatment therewith” (Signal Pharmaceuticals, LLC, priority 2006, dated 2011).

Target: T1, Tyk2 (Homo sapiens, UniProt P29597)
T1 construct: 450 ng/ml TYK2 KD (Cama Biosciences 08-147 Lot 06CBS-3022D); purchased Cama Biosciences (so in the source)
T1 sequence (P29597 897-1176 limits assumed): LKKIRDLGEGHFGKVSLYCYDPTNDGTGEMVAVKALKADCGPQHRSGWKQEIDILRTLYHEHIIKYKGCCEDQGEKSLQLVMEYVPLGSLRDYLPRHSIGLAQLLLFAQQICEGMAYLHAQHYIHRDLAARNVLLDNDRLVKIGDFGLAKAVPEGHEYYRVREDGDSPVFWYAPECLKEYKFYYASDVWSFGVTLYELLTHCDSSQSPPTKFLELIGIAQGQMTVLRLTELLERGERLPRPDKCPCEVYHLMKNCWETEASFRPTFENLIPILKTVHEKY
Test: Tyk2 HTRF Assay
Assay type: biochemical
Method: The following is an example of an assay that can be used to determine the Tyk2 inhibitory activity of a test compound.
25 μl/well DMSO is added to Columns 2 and 14 (except 28.5 μl is added to well P14 of Greiner 384-well polypropylene plate). 20 μl/well DMSO is added to all remaining wells.
5 mM compound solutions are added by addition of 5 μl of 30 mM compound to 25 μl DMSO in Columns 2 and 14 of plate. 1.5 mM reference control is prepared by addition of 1.5 μl of 30 mM JAK3 Inhibitor VI to 28.5 μl DMSO in Well P14.
Serial dilution is then performed by the following steps: (i) Compounds in Column 2 are mixed by pipetting 20 μl up and down 6X; (ii) 10 μl/well compounds in DMSO are transferred from one column to the next column for Columns 2-11; (iii) wells are mixed by pipetting 20 μl up and down 6×; (iv) tips are washed 3×25 μl DMSO, 2×25 μl next DMSO; (v) steps i-iv repeated for Columns 14-23.
The following buffers are prepared:
Assay Buffer: 50 mM HEPES pH 7.6; 1 mM DTT; 10 mM MgCl2; 0.01% Triton X100; 0.01% BSA; and 0.1 mM EDTA.
Kinase in Assay Buffer: 450 ng/ml TYK2 KD (Cama Biosciences 08-147 Lot 06CBS-3022D).
Substrate/Detection Mixture (1×ATP) in Assay Buffer: 188 nM DyLight 647-Streptavidin (Pierce 21824); 5 μM Biotin-EQEDEPEGDYFEWLE (Lyn Substrate Peptide); 750 ng/ml Eu-anti-phospho-Tyrosine (PerkinElmer AD0069); 62.5 μM ATP; 80 nM Substrate Peptide (American Peptide Company 332722).
Substrate/Detection Mixture (20×ATP) in Assay Buffer: 188 nM DyLight 647-Streptavidin; 5 μM Biotin-EQEDEPEGDYFEWLE; 750 ng/ml Eu-anti-phospho-Tyrosine; 1250 μM ATP; 80 nM Substrate Peptide.
14.5 μl/well Enzyme Mix or Dilution Buffer (Background Controls) is added to Costar 384 well black plates.
Compound addition and mixture is performed by the following steps: (i) 0.5 μl/well DMSO/compounds in DMSO is transferred from Greiner 384-well polypropylene plate to a plate containing 14.5 μl/well Enzyme Mix and Dilution Buffer; (ii) mixed by pipetting 10 μl up and down 4×; (iii) tips are washed 4×10 μl in DMSO, 2×20 μl in other DMSO; (iv) steps i-iii are repeated until all plates are completed.
10 μl/well Substrate/Detection Mixtures is added and incubated at room temperature 2 hours (on shaker for first 2+ minutes).
10 μl/well 50 mM EDTA/0.01% Triton X100 is added and incubated >15 minutes at room temperature (on shaker for first 2+ minutes).
Plates are read at 665 nm and 620 nm emission on Analyst GT protocol HTRF_SP_A (Counts= 665/620×10000).

For `NC(=O)c1nc(-c2cccnc2)nc2c1[nH]c(=O)n2[C@H]1CC[C@H](O)CC1` [Compound 50, 9-(trans-4-Hydroxycyclohexyl)-8-oxo-2-(pyridin-3-yl)-8,9-dihydro-7H-purine-6-carboxamide], the IC50 was 20.1 to 30 µM.
